Source: PubChem BioAssay AID652226 (The Scripps Research Institute Molecular Screening Center, 2013)
Calls of active or inactive are those of the source.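 The calls were made as follows: active = compounds blocking PP5 with IC50 under 10 µM; inactive = the rest.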

target: Serine/threonine-protein phosphatase 5 (Homo sapiens) (UniProt P53041); test: human PP5c inhibition, concentration series – biochemical, fluorescence, OMFP substrate, set 1, selectivity assay for PP1 inhibitor project, late-stage follow-up (AID 652226); details: purified PP5c, OMFP dephosphorylation
Sequence (P53041 whole entry, looked up): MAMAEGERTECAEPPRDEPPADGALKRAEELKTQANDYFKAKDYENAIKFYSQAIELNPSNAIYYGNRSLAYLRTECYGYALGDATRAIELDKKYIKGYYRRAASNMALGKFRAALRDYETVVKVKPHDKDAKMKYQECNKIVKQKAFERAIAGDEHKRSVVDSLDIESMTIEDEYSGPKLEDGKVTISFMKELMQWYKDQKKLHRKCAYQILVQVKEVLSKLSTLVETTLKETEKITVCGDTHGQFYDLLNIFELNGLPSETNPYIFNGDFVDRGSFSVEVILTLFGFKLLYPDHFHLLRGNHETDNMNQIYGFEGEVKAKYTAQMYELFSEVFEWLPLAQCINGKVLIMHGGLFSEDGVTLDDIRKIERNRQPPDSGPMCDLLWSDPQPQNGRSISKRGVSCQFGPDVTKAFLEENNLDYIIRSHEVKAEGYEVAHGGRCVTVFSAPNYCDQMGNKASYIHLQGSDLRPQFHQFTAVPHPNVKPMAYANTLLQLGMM

IC50, inactive:
CN1CCN(C(c2ccccn2)c2ccc3cccnc3c2O)CC1 (stereo not drawn)
Oc1c(Cc2ccccn2)ccc2cccnc12
Oc1c(C(c2ccccn2)N2CCOCC2)cc(Cl)c2cccnc12 (stereo not drawn)
